According to patent US8283373B2, “Inhibitors of cytosolic phospholipase A2” (Pfizer Inc., priority 2005, dated 2012):

Assays:
cPLA2α = molecular target: T1, cPLA2α (Homo sapiens, UniProt P47712); experiment: GLU Micelle Assay; format: biochemical
T1 sequence (P47712 1-749): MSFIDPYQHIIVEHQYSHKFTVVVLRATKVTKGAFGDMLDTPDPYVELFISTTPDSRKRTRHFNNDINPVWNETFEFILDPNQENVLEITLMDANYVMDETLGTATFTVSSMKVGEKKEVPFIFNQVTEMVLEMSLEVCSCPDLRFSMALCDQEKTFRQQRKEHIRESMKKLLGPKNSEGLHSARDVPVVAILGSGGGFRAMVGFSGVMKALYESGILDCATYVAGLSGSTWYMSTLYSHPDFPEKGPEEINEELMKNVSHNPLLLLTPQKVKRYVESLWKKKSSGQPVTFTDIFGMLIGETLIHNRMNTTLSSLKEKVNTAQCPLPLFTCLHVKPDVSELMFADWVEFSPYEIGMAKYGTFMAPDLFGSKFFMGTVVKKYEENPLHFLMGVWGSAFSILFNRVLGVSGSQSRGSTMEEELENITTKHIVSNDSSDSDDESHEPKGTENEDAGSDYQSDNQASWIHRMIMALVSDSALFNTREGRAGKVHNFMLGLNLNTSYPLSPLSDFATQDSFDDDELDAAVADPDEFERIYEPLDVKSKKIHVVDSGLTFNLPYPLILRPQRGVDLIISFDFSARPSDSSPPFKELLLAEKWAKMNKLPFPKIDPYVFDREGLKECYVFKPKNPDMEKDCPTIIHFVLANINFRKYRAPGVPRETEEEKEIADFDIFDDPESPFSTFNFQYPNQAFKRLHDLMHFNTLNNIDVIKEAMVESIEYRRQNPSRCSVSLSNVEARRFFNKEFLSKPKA
Method: The assay was carried in a 96-well format using a fluorescent plate reader with a 355 nm excitation filter and a 460 nm emission filter (Lab Systems Fluoroscan II, Helsinki, Finland). The assay buffer contained 940 μM Triton X-100, 50 mM Hepes pH 7.4, 0.3 mM EDTA, 1 mM CaCl2 and 300 mM KCl. DTPC (1,2-O-tetradecyl-sn-glycero-3-phosphocholine, Avanti) at a final concentration of 120 μM was added the day of the experiment and GLU (7-Hydroxycoumarinyl-γ-linolenate, Biomol Research Lab, Inc.) at a final concentration of 90 μM was added immediately prior to each assay.
Compounds (10 μL) dissolved in DMSO were placed in duplicate wells of a black 96-well plate. Wells corresponding to the positive and negative controls contained DMSO without inhibitors. Just prior to the experiment, 200 μL assay buffer containing 90 μM GLU and 120 μM DTPC was added to all wells in the assay plate. Assay buffer (50 μL) was added to the negative, and 50 μL cPLA2α solution ([…] in assay buffer) was added to all other wells to initiate the reaction. The final concentration of enzyme was 1 μg/ml. The content of each well was mixed gently during the addition of the enzyme, and the plate was rapidly transferred to the fluorescent plate reader. The increase in fluorescence was read every 4 min for 84 min. The slope of the resulting line was determined and the inhibition was calculated using the equation below: Percent Inhibition=[1−(slope with inhibitor−slope negative control)/(slope positive control−slope negative control)]×100 Rat Whole Blood Assay

TXB2 = experiment: Rat Whole Blood Assay (A23187-stimulated TXB2); format: cell-based; conditions: A23187 5 μM
Method: Fresh blood was collected in heparinized tubes by cardiac puncture of male Sprague-Dawley rats. Aliquots of blood (0.6 mL) were incubated with either 6 μL solvent (DMSO), or 6 μL of test compounds at various concentrations for 15 minutes at 37° C. This was followed by incubation of the blood with 6 μL of calcium ionophore, A23187 (Sigma C-7522) diluted in DMSO for 10 min at 37° C. The final concentration of A23187 was 5 μM. DMSO (6 μL) was added in the unstimulated controls. The reactions were stopped by mixing 60 μL cold EDTA to give a final concentration of 20 mM. The blood was centrifuged at 6,500 rpm for 10 min on a microcentrifuge to obtain plasma. A 70 μL aliquot of plasma was mixed with 400 μL cold methanol for protein precipitation. After incubation at −80° C. for 30 min, the supernatant was obtained by centrifuging at 6,500 rpm for 10 min, and was assayed for TXB2 according to the manufacturer's procedure (Assay Designs, Inc.'s ELISA kit #900-002).

Row | Structure (SMILES) | IC50 (cPLA2α) | IC50 (TXB2; Rattus norvegicus) | IC50 (TXB2)
1 | O=C(O)c1ccc(OCCc2c(CCNS(=O)(=O)Cc3ccccc3OCc3ccccc3)n(C(c3ccccc3)c3ccccc3)c3ccc(Cl)cc23)cc1 [Example 1, 4-{2-[2-[2-({[2-(benzyloxy)benzyl]sulfonyl}amino)ethyl]-5-chloro-1-(diphenylmethyl)-1H-indol-3-yl]ethoxy}benzoic acid] | 260 nM | 140 nM | –
2 | O=C(O)c1ccc(OCCc2c(CCNS(=O)(=O)Cc3ccccc3O)n(C(c3ccccc3)c3ccccc3)c3ccc(Cl)cc23)cc1 [Example 2, 4-{2-[5-chloro-1-(diphenylmethyl)-2-(2-{[(2-hydroxybenzyl)sulfonyl]amino}ethyl)-1H-indol-3-yl]ethoxy}benzoic acid] | 190 nM | 120 nM | –
3 | O=C(O)c1ccc(OCCc2c(CCNS(=O)(=O)Cc3c(Br)cccc3Br)n(C(c3ccccc3)c3ccccc3)c3ccc(Cl)cc23)cc1 [Example 3, 4-{2-[5-chloro-2-(2-{[(2,6-dibromobenzyl)sulfonyl]amino}ethyl)-1-(diphenylmethyl)-1H-indol-3-yl]ethoxy}benzoic acid] | 54 nM | 60 nM | –
4 | Cc1cccc([N+](=O)[O-])c1CS(=O)(=O)NCCc1c(CCOc2ccc(C(=O)O)cc2)c2cc(Cl)ccc2n1C(c1ccccc1)c1ccccc1 [Example 4, 4-(2-{1-benzhydryl-5-chloro-2-[2-methyl-6-nitro-phenylmethanesulfonylamino)-ethyl-1-H-indol-3-yl}ethoxy)-benzoic acid] | 54 nM | – | 20 nM
5 | O=C(O)c1ccc(OCCc2c(CCNS(=O)(=O)Cc3ccccc3C(F)(F)F)n(C(c3ccccc3)c3ccccc3)c3ccc(Cl)cc23)cc1 [Example 5, 4-(2-{5-chloro-1-(diphenylmethyl)-2-[2-({[2-(trifluoromethyl)benzyl]sulfonyl}amino)ethyl]-1H-indol-3-yl}ethoxy)benzoic acid] | 26 nM | 20 nM | –
6 | O=C(O)c1ccc(OCCc2c(CCNS(=O)(=O)Cc3c(F)cccc3C(F)(F)F)n(C(c3ccccc3)c3ccccc3)c3ccc(Cl)cc23)cc1 [Example 6, 4-(2-{5-chloro-1-(diphenylmethyl)-2-[2-({[2-fluoro-6-(trifluoromethyl)benzyl]sulfonyl}amino)ethyl]-1H-indol-3-yl}ethoxy)benzoic acid] | 92 nM | 80 nM | –
7 | O=C(O)c1ccc(CCCc2c(CCNS(=O)(=O)Cc3c(Br)cccc3Br)n(C(c3ccccc3)c3ccccc3)c3ccc(Cl)cc23)cc1 [Example 7, 4-{3-[5-chloro-2-(2-{[(2,6-dibromobenzyl)sulfonyl]amino}ethyl)-1-(diphenylmethyl)-1H-indol-3-yl]propyl}benzoic acid] | 18 nM | 30 nM | –
8 | O=C(O)c1ccc(CCCc2c(CCNS(=O)(=O)Cc3c(Cl)cccc3Cl)n(C(c3ccccc3)c3ccccc3)c3ccc(Cl)cc23)cc1 [Example 8, 4-{3-[5-chloro-2-(2-{[(2,6-dichlorobenzyl)sulfonyl]amino}ethyl)-1-(diphenylmethyl)-1H-indol-3-yl]propyl}benzoic acid] | 24 nM | 20 nM | –
9 | Cc1cccc([N+](=O)[O-])c1CS(=O)(=O)NCCc1c(CCCc2ccc(C(=O)O)cc2)c2cc(Cl)ccc2n1C(c1ccccc1)c1ccccc1 [Example 9] | 22 nM | – | 20 nM
10 | CN(CCc1c(CCCc2ccc(C(=O)O)cc2)c2cc(Cl)ccc2n1C(c1ccccc1)c1ccccc1)S(=O)(=O)Cc1ccccc1C(F)(F)F [Example 11, 4-(3-{5-chloro-1-(diphenylmethyl)-2-[2-(methyl{[2-(trifluoromethyl)benzyl]sulfonyl}amino)ethyl]-1H-indol-3-yl}propyl)benzoic acid] | 280 nM | 380 nM | –
11 | O=C(O)c1ccc(CCCc2c(CCNS(=O)(=O)Cc3c(C(F)(F)F)cccc3C(F)(F)F)n(C(c3ccccc3)c3ccccc3)c3ccc(Cl)cc23)cc1 [Example 12, 4-{3-[2-[2-({[2,6-bis(trifluoromethyl)benzyl]sulfonyl}amino)ethyl]-5-chloro-1-(diphenylmethyl)-1H-indol-3-yl]propyl}benzoic acid] | 21 nM | 40 nM | –
12 | COC(=O)c1ccccc1CS(=O)(=O)NCCc1c(CCCc2ccc(C(=O)O)cc2)c2cc(Cl)ccc2n1C(c1ccccc1)c1ccccc1 [Example 13, 4-(3-{5-chloro-1-(diphenylmethyl)-2-[2-({[2-(methoxycarbonyl)benzyl]sulfonyl}amino)ethyl]-1H-indol-3-yl}propyl)benzoic acid] | 26 nM | 30 nM | –
13 | O=Cc1ccccc1CS(=O)(=O)NCCc1c(CCCc2ccc(C(=O)O)cc2)c2cc(Cl)ccc2n1C(c1ccccc1)c1ccccc1 [Example 16, 4-{3-[5-chloro-1-(diphenylmethyl)-2-(2-{[(2-formylbenzyl)sulfonyl]amino}ethyl)-1H-indol-3-yl]propyl}benzoic acid] | 23 nM | 50 nM | –
14 | O=C(O)c1ccc(CCCc2c(CCNS(=O)(=O)Cc3ccccc3CN3CCOCC3)n(C(c3ccccc3)c3ccccc3)c3ccc(Cl)cc23)cc1 [Example 17, 4-(3-{5-chloro-1-(diphenylmethyl)-2-[2-({[2-(morpholin-4-ylmethyl)benzyl]sulfonyl}amino)ethyl]-1H-indol-3-yl}propyl)benzoic acid] | 10 nM | 20 nM | –
15 | CCN(CC)Cc1ccccc1CS(=O)(=O)NCCc1c(CCCc2ccc(C(=O)O)cc2)c2cc(Cl)ccc2n1C(c1ccccc1)c1ccccc1 [Example 18, 4-{3-[5-chloro-2-{2-[({2-[(diethylamino)methyl]benzyl}sulfonyl)amino]ethyl}-1-(diphenylmethyl)-1H-indol-3-yl]propyl}benzoic acid] | 25 nM | 40 nM | –
16 | O=C(O)c1ccc(CCCc2c(CCNS(=O)(=O)Cc3ccccc3CO)n(C(c3ccccc3)c3ccccc3)c3ccc(Cl)cc23)cc1 [Example 19, 4-(3-{5-chloro-1-(diphenylmethyl)-2-[2-({[2-(hydroxymethyl)benzyl]sulfonyl}amino)ethyl]-1H-indol-3-yl}propyl)benzoic acid] | 22 nM | 30 nM | –
17 | CN1CCN(Cc2ccccc2CS(=O)(=O)NCCc2c(CCCc3ccc(C(=O)O)cc3)c3cc(Cl)ccc3n2C(c2ccccc2)c2ccccc2)CC1 [Example 22, 4-[3-(5-chloro-1-(diphenylmethyl)-2-{2-[({2-[(4-methylpiperazin-1-yl)methyl]benzyl}sulfonyl)amino]ethyl}-1H-indol-3-yl)propyl]benzoic acid] | 21 nM | 80 nM | –
18 | CC(c1ccccc1C(F)(F)F)S(=O)(=O)NCCc1c(CCCc2ccc(C(=O)O)cc2)c2cc(Cl)ccc2n1C(c1ccccc1)c1ccccc1 (stereo not shown) [Example 23, 4-[3-(5-chloro-1-(diphenylmethyl)-2-{2-[({1-[2-(trifluoromethyl)phenyl]ethyl}sulfonyl)amino]ethyl}-1H-indol-3-yl)propyl]benzoic acid] | 105 nM | 40 nM | –
19 | O=C(O)c1ccc(CCCc2c(CCNS(=O)(=O)Cc3ccccc3Br)n(C(c3ccccc3)c3ccccc3)c3ccc(Cl)cc23)cc1 [Example 24, 4-{3-[2-(2-{[(2-bromobenzyl)sulfonyl]amino}ethyl)-5-chloro-1-(diphenylmethyl)-1H-indol-3-yl]propyl}benzoic acid] | 8 nM | 30 nM | –
20 | Cc1c(Cl)ccc(F)c1CS(=O)(=O)NCCc1c(CCCc2ccc(C(=O)O)cc2)c2cc(Cl)ccc2n1C(c1ccccc1)c1ccccc1 [Example 26] | 22 nM | – | 30 nM
